# Source: ChEMBL document CHEMBL2203052, “Synthesis and antimycobacterial activity of calpinactam derivatives” (2012)
# System: Mycolicibacterium smegmatis
# Assay: Antimycobacterial activity against Mycobacterium smegmatis by liquid microdilution method
# Type: functional
row,Structure (SMILES),MIC [µg/mL]
1,CC[C@H](C)[C@@H](NC(=O)[C@@H](CCC(=O)O)NC(=O)[C@H](Cc1cnc[nH]1)NC(=O)[C@H](CC(C)C)NC(=O)[C@H](N)Cc1ccccc1)C(=O)N[C@@H](C)C(=O)O,> 50
2,CC(C)C[C@H](NC(=O)[C@H](N)Cc1ccccc1)C(=O)N[C@@H](Cc1cnc[nH]1)C(=O)N[C@H](CCC(=O)O)C(=O)N[C@H](C)C(=O)N[C@H]1CCCCNC1=O,> 50
3,CC[C@H](C)[C@@H](NC(=O)[C@@H](CCC(=O)O)NC(=O)[C@@H](Cc1cnc[nH]1)NC(=O)[C@H](CC(C)C)NC(=O)[C@H](N)Cc1ccccc1)C(=O)N[C@H]1CCCCNC1=O,> 50
4,CC[C@H](C)[C@@H](NC(=O)[C@@H](CCC(=O)O)NC(=O)[C@H](Cc1cnc[nH]1)NC(=O)[C@H](CC(C)C)NC(=O)[C@@H](N)Cc1ccccc1)C(=O)N[C@H]1CCCCNC1=O,> 50
5,CC[C@H](C)[C@@H](NC(=O)[C@@H](CCC(=O)O)NC(=O)[C@H](C)NC(=O)[C@H](CC(C)C)NC(=O)[C@H](N)Cc1ccccc1)C(=O)N[C@H]1CCCCNC1=O,> 50
6,CC[C@H](C)[C@@H](NC(=O)[C@@H](CCC(=O)O)NC(=O)[C@H](Cc1cnc[nH]1)NC(=O)[C@H](CC(C)C)NC(=O)[C@H](N)Cc1ccccc1)C(=O)N[C@@H]1CCCCNC1=O,> 50
7,CC[C@H](C)[C@@H](NC(=O)[C@@H](CCC(=O)O)NC(=O)[C@H](Cc1cnc[nH]1)NC(=O)[C@H](CC(C)C)NC(=O)[C@H](N)Cc1ccccc1)C(=O)N[C@@H](CCCCN)C(=O)O,> 50
8,CC[C@H](C)[C@@H](NC(=O)[C@@H](CCC(=O)O)NC(=O)[C@H](Cc1cnc[nH]1)NC(=O)[C@H](CC(C)C)NC(=O)[C@@H](C)N)C(=O)N[C@H]1CCCCNC1=O,> 50

# Continued, values first:
row,MIC [µg/mL],Structure (SMILES)
1,> 50,CC[C@H](C)[C@@H](NC(=O)[C@@H](CCC(=O)O)NC(=O)[C@H](Cc1cnc[nH]1)NC(=O)[C@H](CC(C)C)NC(=O)[C@H](N)Cc1ccccc1)C(=O)N[C@H]1CCCNC1=O
2,> 50,CC[C@H](C)[C@@H](NC(=O)[C@@H](CCC(=O)O)NC(=O)[C@H](Cc1cnc[nH]1)NC(=O)[C@@H](N)CC(C)C)C(=O)N[C@H]1CCCCNC1=O
3,> 50,CC[C@H](C)[C@@H](NC(=O)[C@@H](CCC(=O)O)NC(=O)[C@H](Cc1cnc[nH]1)NC(=O)[C@H](CC(C)C)NC(=O)[C@H](N)Cc1ccccc1)C(=O)NC1CCCCCC1
4,> 50,CC[C@H](C)[C@@H](NC(=O)[C@H](CCC(=O)O)NC(=O)[C@H](Cc1cnc[nH]1)NC(=O)[C@H](CC(C)C)NC(=O)[C@H](N)Cc1ccccc1)C(=O)N[C@H]1CCCCNC1=O
5,> 50,CC[C@H](C)[C@@H](NC(=O)[C@@H](CCC(=O)O)NC(=O)[C@H](Cc1cnc[nH]1)NC(=O)[C@@H](CC(C)C)NC(=O)[C@H](N)Cc1ccccc1)C(=O)N[C@H]1CCCCNC1=O
6,> 50,CC[C@H](C)[C@@H](NC(=O)[C@@H](CCC(=O)O)NC(=O)[C@H](Cc1cnc[nH]1)NC(=O)[C@H](C)NC(=O)[C@H](N)Cc1ccccc1)C(=O)N[C@H]1CCCCNC1=O
7,> 50,CC[C@H](C)[C@@H](NC(=O)[C@@H](CCC(=O)O)NC(=O)[C@H](Cc1cnc[nH]1)NC(=O)[C@H](CC(C)C)NC(=O)[C@H](N)Cc1ccccc1)C(=O)O
8,0.78,CC[C@H](C)[C@@H](NC(=O)[C@@H](CCC(=O)O)NC(=O)[C@H](Cc1cnc[nH]1)NC(=O)[C@H](CC(C)C)NC(=O)[C@H](N)Cc1ccccc1)C(=O)N[C@H]1CCCCNC1=O [CALPINACTAM]
9,> 50,CC[C@H](C)[C@H](NC(=O)[C@@H](CCC(=O)O)NC(=O)[C@H](Cc1cnc[nH]1)NC(=O)[C@H](CC(C)C)NC(=O)[C@H](N)Cc1ccccc1)C(=O)N[C@H]1CCCCNC1=O
10,> 50,CC[C@H](C)[C@@H](NC(=O)[C@@H](CCC(=O)O)NC(=O)[C@H](Cc1cnc[nH]1)NC(=O)[C@H](CC(C)C)NC(=O)[C@@H](Cc1ccccc1)NC(C)=O)C(=O)N[C@H]1CCCCNC1=O
11,6.25,CC[C@H](C)[C@@H](NC(=O)[C@@H](C)NC(=O)[C@H](Cc1cnc[nH]1)NC(=O)[C@H](CC(C)C)NC(=O)[C@H](N)Cc1ccccc1)C(=O)N[C@H]1CCCCNC1=O
